Measured values as given in the kinase profiling compilation of Christmann-Franck et al. (2016).

How the values were obtained:
Assay in all cases: radiometric filter-binding kinase assay, Kinase HotSpot
Conditions in all cases: compound 0.5 µM; ATP 10 µM
EPHB4 (human) = EPHB4 (human) (UniProt P54760)
NEK7 (human) = NEK7 (human) (UniProt Q8TDX7)
MAPK1 (human) = MAPK1 (human) (UniProt P28482)
CLK2 (human) = CLK2 (human) (UniProt P49760)
WEE1 (human) = WEE1 (human) (UniProt P30291)
DCLK2 (human) = DCLK2 (human) (UniProt Q8N568)
MAPK12 (human) = MAPK12 (human) (UniProt P53778)
MARK2 (human) = MARK2 (human) (UniProt Q7KZI7)
PRKD2 (human) = PRKD2 (human) (UniProt Q9BZL6)
NUAK2 (human) = NUAK2 (human) (UniProt Q9H093)
PLK1 (human) = PLK1 (human) (UniProt P53350)
CSNK1E (human) = CSNK1E (human) (UniProt P49674)
RAF1 (human) = RAF1 (human) (UniProt P04049)
ABL1 (human) = ABL1 (human) (UniProt P00519)
STK4 (human) = STK4 (human) (UniProt Q13043)
CDK5 CDK5R1 p35 (human) = CDK5 CDK5R1 p35 (human) (UniProt Q00535+Q15078)
PLK2 (human) = PLK2 (human) (UniProt Q9NYY3)
CSNK2A2 (human) = CSNK2A2 (human) (UniProt P19784)
CHUK (human) = CHUK (human) (UniProt O15111)
PAK1 (human) = PAK1 (human) (UniProt Q13153)
PRKCE (human) = PRKCE (human) (UniProt Q02156)
PDGFRB (human) = PDGFRB (human) (UniProt P09619)
MAP3K10 (human) = MAP3K10 (human) (UniProt Q02779)
GRK6 (human) = GRK6 (human) (UniProt P43250)
MYLK (human) = MYLK (human) (UniProt Q15746)
ACVR1 (human) = ACVR1 (human) (UniProt Q04771)
PBK (human) = PBK (human) (UniProt Q96KB5)
FES (human) = FES (human) (UniProt P07332)
AURKA (human) = AURKA (human) (UniProt O14965)
CDC42BPB (human) = CDC42BPB (human) (UniProt Q9Y5S2)
EGFR (human) = EGFR (human) (UniProt P00533)
ERBB2 (human) = ERBB2 (human) (UniProt P04626)
FGFR1 (human) = FGFR1 (human) (UniProt P11362)
[1] = test system: ARAF (human), P10398 [Y301D/Y302D]
BRAF (human) = BRAF (human) (UniProt P15056)

Sequence of STK4 (human) (Q13043 whole entry, looked up): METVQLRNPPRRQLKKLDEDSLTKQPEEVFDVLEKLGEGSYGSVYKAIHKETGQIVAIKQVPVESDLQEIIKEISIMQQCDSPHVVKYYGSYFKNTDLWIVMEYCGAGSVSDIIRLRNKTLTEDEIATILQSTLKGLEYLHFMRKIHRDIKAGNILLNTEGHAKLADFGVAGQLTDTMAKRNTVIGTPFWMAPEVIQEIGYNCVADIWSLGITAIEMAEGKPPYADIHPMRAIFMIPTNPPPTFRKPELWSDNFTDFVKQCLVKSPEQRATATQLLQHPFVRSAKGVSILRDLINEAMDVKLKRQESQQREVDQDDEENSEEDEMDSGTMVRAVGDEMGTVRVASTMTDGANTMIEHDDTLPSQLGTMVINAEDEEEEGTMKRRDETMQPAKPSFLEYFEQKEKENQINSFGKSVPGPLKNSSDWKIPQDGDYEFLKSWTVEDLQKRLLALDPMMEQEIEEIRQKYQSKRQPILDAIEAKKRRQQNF
Sequence of RAF1 (human) (P04049 whole entry, looked up): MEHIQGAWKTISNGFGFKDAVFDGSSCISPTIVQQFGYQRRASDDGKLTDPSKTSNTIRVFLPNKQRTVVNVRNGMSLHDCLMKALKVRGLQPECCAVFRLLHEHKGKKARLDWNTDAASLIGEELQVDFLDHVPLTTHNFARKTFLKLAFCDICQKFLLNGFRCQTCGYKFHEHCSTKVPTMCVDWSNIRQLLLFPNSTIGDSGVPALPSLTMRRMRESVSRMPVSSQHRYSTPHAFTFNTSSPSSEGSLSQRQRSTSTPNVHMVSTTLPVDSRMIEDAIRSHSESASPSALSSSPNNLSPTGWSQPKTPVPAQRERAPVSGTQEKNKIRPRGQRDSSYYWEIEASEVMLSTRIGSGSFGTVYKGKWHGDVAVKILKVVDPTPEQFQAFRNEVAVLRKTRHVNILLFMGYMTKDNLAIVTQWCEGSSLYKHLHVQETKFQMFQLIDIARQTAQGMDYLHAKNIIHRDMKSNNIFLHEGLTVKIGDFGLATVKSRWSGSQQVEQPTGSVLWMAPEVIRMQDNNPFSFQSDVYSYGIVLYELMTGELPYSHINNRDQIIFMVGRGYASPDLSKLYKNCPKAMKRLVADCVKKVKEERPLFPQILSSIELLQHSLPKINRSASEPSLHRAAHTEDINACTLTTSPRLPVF
Sequence of EPHB4 (human) (P54760 whole entry, looked up): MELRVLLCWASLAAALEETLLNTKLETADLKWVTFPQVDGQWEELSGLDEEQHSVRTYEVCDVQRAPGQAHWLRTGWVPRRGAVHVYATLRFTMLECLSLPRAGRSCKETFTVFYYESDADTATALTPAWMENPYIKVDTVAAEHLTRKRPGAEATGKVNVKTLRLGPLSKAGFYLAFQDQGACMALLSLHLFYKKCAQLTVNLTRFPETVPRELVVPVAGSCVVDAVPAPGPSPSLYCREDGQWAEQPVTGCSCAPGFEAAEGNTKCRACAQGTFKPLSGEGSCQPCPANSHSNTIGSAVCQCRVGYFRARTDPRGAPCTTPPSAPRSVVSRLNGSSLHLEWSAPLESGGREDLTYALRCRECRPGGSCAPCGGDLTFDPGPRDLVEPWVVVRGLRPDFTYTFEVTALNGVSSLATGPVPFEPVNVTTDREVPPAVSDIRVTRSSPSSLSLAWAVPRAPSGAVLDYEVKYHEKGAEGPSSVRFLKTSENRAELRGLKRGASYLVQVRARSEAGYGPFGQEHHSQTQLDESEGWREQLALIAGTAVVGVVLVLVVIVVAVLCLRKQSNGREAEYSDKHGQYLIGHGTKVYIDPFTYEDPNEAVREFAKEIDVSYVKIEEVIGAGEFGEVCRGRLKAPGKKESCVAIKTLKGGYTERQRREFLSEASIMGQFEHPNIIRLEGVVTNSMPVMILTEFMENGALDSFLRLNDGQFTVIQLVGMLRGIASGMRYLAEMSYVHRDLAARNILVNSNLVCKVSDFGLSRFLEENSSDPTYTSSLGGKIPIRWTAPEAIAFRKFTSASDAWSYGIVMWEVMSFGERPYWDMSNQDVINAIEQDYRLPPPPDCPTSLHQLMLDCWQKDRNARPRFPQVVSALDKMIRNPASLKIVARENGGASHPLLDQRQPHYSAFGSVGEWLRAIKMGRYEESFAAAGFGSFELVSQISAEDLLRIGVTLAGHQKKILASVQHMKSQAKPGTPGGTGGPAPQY
Sequence of CLK2 (human) (P49760 whole entry, looked up): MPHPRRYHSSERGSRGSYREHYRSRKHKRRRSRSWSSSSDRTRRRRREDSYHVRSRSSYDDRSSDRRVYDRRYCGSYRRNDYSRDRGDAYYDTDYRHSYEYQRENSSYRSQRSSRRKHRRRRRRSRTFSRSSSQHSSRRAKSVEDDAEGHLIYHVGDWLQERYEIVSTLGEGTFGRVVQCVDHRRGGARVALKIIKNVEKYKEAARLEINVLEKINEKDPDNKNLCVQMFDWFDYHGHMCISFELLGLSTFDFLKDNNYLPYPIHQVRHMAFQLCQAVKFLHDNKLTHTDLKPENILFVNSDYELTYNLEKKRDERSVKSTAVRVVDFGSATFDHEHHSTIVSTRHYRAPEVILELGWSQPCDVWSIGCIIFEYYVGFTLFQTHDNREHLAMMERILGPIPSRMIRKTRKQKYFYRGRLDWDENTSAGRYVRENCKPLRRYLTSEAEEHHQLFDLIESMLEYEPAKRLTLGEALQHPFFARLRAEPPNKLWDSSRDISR
Sequence of GRK6 (human) (P43250 whole entry, looked up): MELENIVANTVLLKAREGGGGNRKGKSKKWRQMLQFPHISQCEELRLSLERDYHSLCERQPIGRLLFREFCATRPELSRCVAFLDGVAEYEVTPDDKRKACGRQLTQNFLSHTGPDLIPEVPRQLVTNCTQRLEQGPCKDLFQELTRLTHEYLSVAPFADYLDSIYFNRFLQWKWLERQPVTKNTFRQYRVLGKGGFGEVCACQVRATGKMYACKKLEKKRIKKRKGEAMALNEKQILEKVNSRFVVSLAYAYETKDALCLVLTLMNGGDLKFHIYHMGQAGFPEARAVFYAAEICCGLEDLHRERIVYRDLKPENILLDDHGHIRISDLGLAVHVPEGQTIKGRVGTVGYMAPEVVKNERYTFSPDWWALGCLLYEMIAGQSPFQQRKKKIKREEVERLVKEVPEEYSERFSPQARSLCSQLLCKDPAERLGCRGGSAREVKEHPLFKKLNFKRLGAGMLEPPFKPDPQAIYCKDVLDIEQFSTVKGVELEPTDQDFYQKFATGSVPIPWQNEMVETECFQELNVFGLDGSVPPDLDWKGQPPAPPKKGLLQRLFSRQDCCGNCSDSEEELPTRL
Sequence of PRKCE (human) (Q02156 whole entry, looked up): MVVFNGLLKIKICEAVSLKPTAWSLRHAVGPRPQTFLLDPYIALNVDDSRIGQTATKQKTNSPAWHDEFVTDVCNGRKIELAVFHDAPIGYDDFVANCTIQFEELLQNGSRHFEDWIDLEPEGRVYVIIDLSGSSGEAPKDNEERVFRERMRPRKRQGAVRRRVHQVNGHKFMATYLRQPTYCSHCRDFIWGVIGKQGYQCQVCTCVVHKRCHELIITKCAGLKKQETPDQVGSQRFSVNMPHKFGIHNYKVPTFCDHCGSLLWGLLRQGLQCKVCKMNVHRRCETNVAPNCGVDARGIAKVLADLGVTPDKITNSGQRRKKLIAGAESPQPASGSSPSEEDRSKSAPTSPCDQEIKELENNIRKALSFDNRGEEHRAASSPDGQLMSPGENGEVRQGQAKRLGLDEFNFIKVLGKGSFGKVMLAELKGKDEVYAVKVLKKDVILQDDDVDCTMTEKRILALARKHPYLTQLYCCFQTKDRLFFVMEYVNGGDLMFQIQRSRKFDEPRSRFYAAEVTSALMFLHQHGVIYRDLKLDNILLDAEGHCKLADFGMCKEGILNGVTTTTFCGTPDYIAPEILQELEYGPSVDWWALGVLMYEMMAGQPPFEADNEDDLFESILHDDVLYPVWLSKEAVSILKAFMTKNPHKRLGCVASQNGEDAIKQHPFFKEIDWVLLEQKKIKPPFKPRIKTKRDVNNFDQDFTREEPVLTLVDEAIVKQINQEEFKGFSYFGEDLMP
Sequence of MARK2 (human) (Q7KZI7 whole entry, looked up): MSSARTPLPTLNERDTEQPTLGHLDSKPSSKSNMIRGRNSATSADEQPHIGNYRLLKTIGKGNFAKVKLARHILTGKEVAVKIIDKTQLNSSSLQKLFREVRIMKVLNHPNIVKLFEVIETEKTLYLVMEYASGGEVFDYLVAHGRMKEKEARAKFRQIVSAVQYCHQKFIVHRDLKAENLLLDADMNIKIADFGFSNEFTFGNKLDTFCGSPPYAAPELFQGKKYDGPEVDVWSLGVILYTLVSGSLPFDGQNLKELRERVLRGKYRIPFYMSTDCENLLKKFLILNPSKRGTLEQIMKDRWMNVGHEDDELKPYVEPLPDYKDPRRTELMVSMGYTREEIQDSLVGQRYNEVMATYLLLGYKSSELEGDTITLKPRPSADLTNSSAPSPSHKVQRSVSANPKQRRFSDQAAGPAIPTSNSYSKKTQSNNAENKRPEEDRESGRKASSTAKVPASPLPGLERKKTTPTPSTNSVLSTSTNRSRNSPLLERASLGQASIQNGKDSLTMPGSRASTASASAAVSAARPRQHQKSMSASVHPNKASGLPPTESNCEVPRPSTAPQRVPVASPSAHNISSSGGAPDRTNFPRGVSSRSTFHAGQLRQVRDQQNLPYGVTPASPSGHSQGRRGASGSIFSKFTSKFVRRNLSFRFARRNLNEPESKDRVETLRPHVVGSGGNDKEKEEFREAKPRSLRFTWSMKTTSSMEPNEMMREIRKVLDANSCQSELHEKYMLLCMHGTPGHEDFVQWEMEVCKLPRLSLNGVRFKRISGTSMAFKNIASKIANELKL
Sequence of PBK (human) (Q96KB5 whole entry, looked up): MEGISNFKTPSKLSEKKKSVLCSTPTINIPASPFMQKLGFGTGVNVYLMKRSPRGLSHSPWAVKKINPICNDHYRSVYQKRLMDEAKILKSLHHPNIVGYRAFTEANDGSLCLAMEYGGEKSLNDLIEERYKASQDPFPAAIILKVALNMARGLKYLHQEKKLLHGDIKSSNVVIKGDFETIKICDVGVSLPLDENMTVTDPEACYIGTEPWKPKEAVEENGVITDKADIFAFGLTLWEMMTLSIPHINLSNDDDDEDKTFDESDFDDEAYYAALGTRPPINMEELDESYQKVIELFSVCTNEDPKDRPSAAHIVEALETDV

Structure (SMILES) | residual activity (EPHB4 (human)) [%] | residual activity (NEK7 (human)) [%] | residual activity (MAPK1 (human)) [%] | residual activity (CLK2 (human)) [%] | residual activity (WEE1 (human)) [%] | residual activity (DCLK2 (human)) [%] | residual activity (MAPK12 (human)) [%] | residual activity (MARK2 (human)) [%] | residual activity (PRKD2 (human)) [%] | residual activity (NUAK2 (human)) [%] | residual activity (PLK1 (human)) [%] | residual activity (CSNK1E (human)) [%] | residual activity (RAF1 (human)) [%] | residual activity (ABL1 (human)) [%] | residual activity (STK4 (human)) [%] | residual activity (CDK5 CDK5R1 p35 (human)) [%] | residual activity (PLK2 (human)) [%] | residual activity (CSNK2A2 (human)) [%] | residual activity (CHUK (human)) [%] | residual activity (PAK1 (human)) [%] | further results
O=c1cc(-c2cccc3c2Sc2ccccc2S3)oc(N2CCOCC2)c1 | 94.3 | 105 | 100 | 84.7 | 98.3 | 106 | 114 | 86.3 | 105 | 109 | 102 | 104 | 94.7 | 99.5 | 95 | 99.5 | 84.6 | 96 | 87.4 | 92.3 | residual activity (PRKCE (human)): 109%; residual activity (PDGFRB (human)): 102%; residual activity (MAP3K10 (human)): 95.9%; residual activity (GRK6 (human)): 83%; residual activity (MYLK (human)): 102%; residual activity (ACVR1 (human)): 97.5%; residual activity (PBK (human)): 99.4%; residual activity (FES (human)): 104%; residual activity (AURKA (human)): 91.7%; residual activity (CDC42BPB (human)): 103%; residual activity (EGFR (human)): 107%; residual activity (ERBB2 (human)): 97.3%; residual activity (FGFR1 (human)): 99.2%
Nc1nc(Nc2ccc(S(N)(=O)=O)cc2)nn1C(=S)Nc1c(F)cccc1F | 51 | 82.6 | 76.2 | 3.81 | 100 | 40.4 | 95.2 | 3.43 | 9.05 | 9.73 | 92.1 | 91.8 | 110 | 4.96 | 2.16 | 11.3 | 88.5 | 81.9 | 54.4 | 29 | residual activity [1]: 129%; residual activity (BRAF (human)): 87.2%; residual activity (PRKCE (human)): 11.5%; residual activity (PDGFRB (human)): 45.6%; residual activity (MAP3K10 (human)): 3%; residual activity (GRK6 (human)): 89.4%; residual activity (MYLK (human)): 78.8%; residual activity (ACVR1 (human)): 60.4%; residual activity (PBK (human)): 105%; residual activity (FES (human)): 10.2%; residual activity (AURKA (human)): 1.44%; residual activity (CDC42BPB (human)): 48.1%; residual activity (ERBB2 (human)): 104%; residual activity (FGFR1 (human)): 6.59%
